Source: ChEMBL document CHEMBL1154387, “Discovery of novel non-peptide inhibitors of BACE-1 using virtual high-throughput screening” (Bioorg Med Chem Lett, 2009)

What was measured:
Beta-secretase 1 [1] = biological target: T1, Beta-secretase 1 (Homo sapiens, UniProt P56817); assay: Inhibition of human recombinant BACE1; design: concentration or dose not given beside the values; details: concentration not given here
Beta-secretase 1 [2] = biological target: T1, Beta-secretase 1; assay: Inhibition of human recombinant BACE1 at 100 uM

T1 sequence (P56817 whole entry): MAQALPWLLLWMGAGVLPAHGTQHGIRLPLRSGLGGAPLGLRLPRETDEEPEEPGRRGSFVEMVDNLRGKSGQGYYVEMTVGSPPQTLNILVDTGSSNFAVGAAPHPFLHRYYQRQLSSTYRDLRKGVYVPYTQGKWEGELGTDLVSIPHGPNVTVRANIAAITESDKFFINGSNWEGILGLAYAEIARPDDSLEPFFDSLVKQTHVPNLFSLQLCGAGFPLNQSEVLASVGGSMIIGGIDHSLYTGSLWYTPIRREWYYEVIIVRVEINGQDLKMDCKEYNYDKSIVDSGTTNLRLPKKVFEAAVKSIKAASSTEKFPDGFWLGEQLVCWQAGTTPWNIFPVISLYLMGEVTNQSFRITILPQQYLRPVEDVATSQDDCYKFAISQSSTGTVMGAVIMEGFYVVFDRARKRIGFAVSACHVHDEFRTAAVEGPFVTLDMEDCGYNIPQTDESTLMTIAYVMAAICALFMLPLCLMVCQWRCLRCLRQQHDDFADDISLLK

Compound: O=C1Nc2ccccc2/C1=N/NC(=O)c1cc([N+](=O)[O-])ccc1O
- inhibition (Beta-secretase 1 [1]): 35.2%

Compound: COc1ccc([N+](=O)[O-])cc1C(=O)N/N=C1\C(=O)N(CC(=O)Nc2ccc(C)cc2)c2ccccc21
- inhibition (Beta-secretase 1 [1]): 20.2%

Compound: Cc1ccc(NC(=O)CN2C(=O)/C(=N\NC(=O)c3cccc([N+](=O)[O-])c3)c3ccccc32)cc1
- inhibition (Beta-secretase 1 [1]): 28.8%

Compound: O=C(CN1C(=O)/C(=N\NC(=O)c2cc([N+](=O)[O-])ccc2O)c2ccccc21)Nc1ccc(C(F)(F)F)cc1
- inhibition (Beta-secretase 1 [1]): 74.6%

Compound: O=C(CN1C(=O)/C(=N\NC(=O)c2cc([N+](=O)[O-])ccc2O)c2ccccc21)NC1CCCCC1
- inhibition (Beta-secretase 1 [1]): 92%
- IC50 (Beta-secretase 1 [2]): 4.8 µM

Compound: Cc1ccc(NC(=O)CN2C(=O)/C(=N\NC(=O)c3ccccc3O)c3ccccc32)cc1
- inhibition (Beta-secretase 1 [1]): 71.1%

Compound: CN1C(=O)/C(=N\NC(=O)c2cc([N+](=O)[O-])ccc2O)c2ccccc21
- inhibition (Beta-secretase 1 [1]): 14.3%

Compound: Cc1ccc(NC(=O)CN2C(=O)/C(=N\NC(=O)c3cc([N+](=O)[O-])ccc3O)c3ccccc32)cc1
- inhibition (Beta-secretase 1 [1]): 84.5%
- IC50 (Beta-secretase 1 [2]): 2.4 µM
